Test system: human androgen receptor
Assay: androgenic activity rating (procedures described above; which test underlies the rating is not stated)
Design: key: −: no androgenic activity found; +: androgenic activity found; ++: high androgenic activity; +++: excellent androgenic activity; prodrug
Details: compounds of the invention; rating scheme of Example 18
Experimental: Androgenic activity can be measured in various ways. Thus, the potency of androgens can be determined in vitro using the cytoplasmic androgen receptor from human breast tumor cells (MCF-7 cell line); see Bergink, E. W. et al, Comparison of the receptor binding properties of nandrolone and testosterone under in vitro and in vivo conditions, J. Steroid Biochem. 22, 831-836 (1985). It is also possible to use Chinese hamster ovary (CHO) cells transfected with the human androgen receptor (incubation time 16 h, temperature 4° C.) and compared with the affinity of 5α-dihydrotestosterone [according to the procedure described by Bergink, E. W. et al, J. Steroid Biochem. 19, 1563-1570 (1983)]. The transactivative androgen activity of the compounds of the invention can be measured, e.g. in Chinese hamster ovary cells (CHO) transfected with the human androgen receptor (hAR), in combination with a mouse mammary tumor virus (MMTV), and luciferase receptor gene (incubation time 16 h, temperature 37° C.) and compared with the activity of 5α-dihydrotestosterone [according to the procedure described by Schoonen, W. G. E. J. et al, Analyt. Biochem. 261, 222-224 (1998)]. For the in vivo potency determination of androgens the classical Hershberger test can be used. In this test the androgenic (increase in prostate weight) and anabolic activities [increase of the musculus levator ani (MLA)] of a compound are tested in immature castrated rats after daily administration for 7 days; see Hershberger, L. G. et al, Myotrophic activity of 19-Nortestosterone and other steroids determined by modified levator ani muscle method, Proceedings of the society for experimental biology and medicine 83, 175-180 (1953). Additionally, the effect of an androgenic compound on LH suppression can be tested in mature castrated rats according to Kumar, N. et al, The biological activity of 7alpha-methyl-19-nortestosterone is not amplified in male reproductive tract as is that of testosterone, Endocrinology 130, 3677-3683 (1992).
The compounds according to the invention and four reference compounds were tested for drogenic activity (the procedures for which have been described above) and rated according the following scheme: […]

SMILES | Res. (androgenic activity)
C[C@@H]1CC2=CC(=O)CC[C@@H]2[C@H]2CC[C@]3(C)[C@H](CO)C[C@H]4C[C@]43[C@@H]21 [Example 1, (7α,14β,15β,17α)-17-(Hydroxymethyl)-7-methyl-14,15-methyleneestr-4-en-3-one] | +++
C[C@@H]1CC2=C(CCC(=O)C2)[C@H]2CC[C@]3(C)[C@H](CO)C[C@H]4C[C@]43[C@H]12 [Example 2, (7α,14,β15β,17α)-17-(Hydroxymethyl)-7-methyl-14,15-methyleneestr-5(10)-en-3-one] | +
C[C@@H]1CC2=CC(=O)CCC2=C2CC[C@]3(C)[C@H](CO)C[C@H]4C[C@]43[C@@H]21 [Example 3, (7α,14β,15β17α)-17-(Hydroxymethyl)-7-methyl-14,15-methyleneestra-4,9-dienes-3-one] | ++
CC1=C2C[C@@H](C)[C@@H]3[C@H](CC[C@]4(C)[C@H](CO)C[C@H]5C[C@@]534)[C@H]2CCC1=O [Example 4, (7α,14β,15β,17α)-17-(Hydroxymethyl)-4,7-dimethyl-14,15-methyleneestr-4-en-3-one] | ++
CC[C@@H]1CC2=CC(=O)CC[C@@H]2[C@H]2CC[C@]3(C)[C@H](CO)C[C@H]4C[C@]43[C@H]12 [Example 5, (7α,14β,15β,17α)-7-Ethyl-17-(hydroxymethyl)-14,15-methyleneestr-4-en-3-one] | ++
CC[C@]12CC[C@H]3[C@@H]([C@H](C)CC4=CC(=O)CC[C@@H]43)[C@]13C[C@@H]3C[C@H]2CO [Example 6, (7α,14β,15β,17α)-13-Ethyl-17-(hydroxymethyl)-7-methyl-14,15-methylenegon-4-en-3-one] | +++
C[C@H]1[C@H]2C[C@]23[C@H]2[C@H](CC[C@]3(C)[C@@H]1CO)[C@H]1CCC(=O)C=C1C[C@H]2C [Example 7, (7α,14β,15β16β,17α)-17-(Hydroxymethyl)-7,16-dimethyl-14,15-methyleneestra-4-en-3-one] | +
C[C@@H]1CC2=CC(=O)CC[C@@H]2[C@H]2CC[C@]3(C)[C@](O)(CO)C[C@H]4C[C@]43[C@@H]21 [Example 8, (7α,14β,15β,17β)-17-Hydroxy-17-(hydroxymethyl)-7-methyl-14,15-methyleneestr-4-en-3-one] | +
CC(=O)OC[C@]1(F)C[C@H]2C[C@]23[C@H]2[C@H](CC[C@]13C)[C@H]1CCC(=O)C=C1C[C@H]2C [Example 9a, (7α,14β,15β,17β)-17-[(Acetyloxy)methyl]-17-fluoro-7-methyl-14,15-methyleneestr-4-en-3-one] | ++
C[C@@H]1CC2=CC(=O)CC[C@@H]2[C@H]2CC[C@]3(C)[C@](F)(CO)C[C@H]4C[C@]43[C@@H]21 [Example 9b, (7α,14β,15β,17β)-17-fluoro-17-(hydroxymethyl)-7-methyl-14,15-methyleneestra-4-en-3-one] | ++
CC(=O)OC[C@]1(F)C[C@H]2C[C@]23[C@@H]2[C@H](C)CC4=C(CCC(=O)C4)[C@H]2CC[C@]13C [Example 10, (7α,14β,15β,17β)-17-[(Acetyloxy)methyl]-17-fluoro-7-methyl-14,15-methyleneestr-5(10)-en-3-one] | +
C[C@H](O)[C@@H]1C[C@H]2C[C@]23[C@H]2[C@H](CC[C@]13C)[C@H]1CCC(=O)C=C1C[C@H]2C [Example 11a, (7α,14β,15β,17α,20S)-20-Hydroxy-7-methyl-14,15-methylene-19-norpregn-4-en-3-one] | ++
C[C@@H]1CC2=CC(=O)CC[C@@H]2[C@H]2CC[C@]3(C)[C@H]([C@@H](C)O)C[C@H]4C[C@]43[C@@H]21 [Example 11b, (7α,14β,15β,17α,20R)-20-hydroxy-7-methyl-14,15-methylene-19-norpregn-4-en-3-one] | +
C[C@@H]1CC2=CC(=O)CC[C@@H]2[C@H]2CC[C@]3(C)[C@H](C(C)(C)O)C[C@H]4C[C@]43[C@@H]21 [Example 12, (7α,14β,15β,17α)-20-Hydroxy-7,20-dimethyl-14,15-methylene-19-norpregn-4-en-3-one] | +
CC[C@H](O)[C@@H]1C[C@H]2C[C@]23[C@H]2[C@H](CC[C@]13C)[C@H]1CCC(=O)C=C1C[C@H]2C [Example 13] | +
CC(=O)OC[C@@H]1C[C@H]2C[C@]23[C@H]2[C@H](CC[C@]13C)[C@H]1CCC(=O)C=C1C[C@H]2C [Example 14] | ++
C[C@@H]1CC2=C[C@@H](O)CC[C@@H]2[C@H]2CC[C@]3(C)[C@H](CO)C[C@H]4C[C@]43[C@@H]21 [Example 15a, (3β,7α,14β,15β,17α)-3-Hydroxy-7-methyl-14,15-methyleneestr-4-ene-17-methanol] | +++
C[C@@H]1CC2=C(CC[C@H](O)C2)[C@H]2CC[C@]3(C)[C@H](CO)C[C@H]4C[C@]43[C@H]12 [Example 15b1] | pro
C[C@@H]1CC2=C(CC[C@@H](O)C2)[C@H]2CC[C@]3(C)[C@H](CO)C[C@H]4C[C@]43[C@H]12 [Example 15b2, (3α,7α,14β,15β,17α)-3-Hydroxy-7-methyl-14,15-methyleneestr-5(10)-ene-17-methanol] | Pro
C[C@@H]1CC2=C[C@@H](O)CC[C@@H]2[C@H]2CC[C@]3(C)[C@](O)(CO)C[C@H]4C[C@]43[C@@H]21 [Example 15c1, (3β,7α,14β,15β,17β)-3,17-Dihydroxy-7-methyl-14,15-methyleneestr-4-ene-17methanol] | +
C[C@@H]1CC2=C[C@H](O)CC[C@@H]2[C@H]2CC[C@]3(C)[C@](O)(CO)C[C@H]4C[C@]43[C@@H]21 [Example 15c2, (3α,7α,15β,17β)-3,17-Dihydroxy-7-methyl-14,15-methyleneestr-4-ene-17-methanol] | +

Test system: not given
Assay: not given
Details: not given

SMILES | melting point [°C]
C[C@@H]1CC2=CC(=O)CC[C@@H]2[C@H]2CC[C@]3(C)[C@H](CO)C[C@H]4C[C@]43[C@@H]21 [Example 1, (7α,14β,15β,17α)-17-(Hydroxymethyl)-7-methyl-14,15-methyleneestr-4-en-3-one] | 137 to 140
